Results: ChEMBL document CHEMBL6109084 (Eur J Med Chem, 2025)
The source made the active and inactive calls. No cut-off for these calls is given here.

system: not listed separately; assay: Selectivity index, ratio of IC50 for inhibition of chymotrypsin (unknown origin) using N-Suc-Ala-Ala-Pro-Phe-pNA as substrate to IC50 for inhibition of human FXIa using p-Glu-Pro-Arg-pNA.HCl as substrate; details: not given

Ratio IC50 | SMILES
> 1000 | CC[C@@H](c1cc(-c2ccc(N)nc2F)ccn1)n1cc(OC)c(-c2cc(Cl)ccc2-n2cnnn2)cc1=O

target: Plasminogen (Homo sapiens, UniProt P00747); assay: Inhibition of plasmin (unknown origin) using PyroGlu-Phe-Lys-pNA.HCl as substrate incubated for 30 mins followed by substrate addition and measured after 60 mins by microplate reader analysis; details: not given
Sequence (P00747 97-580 limits assumed): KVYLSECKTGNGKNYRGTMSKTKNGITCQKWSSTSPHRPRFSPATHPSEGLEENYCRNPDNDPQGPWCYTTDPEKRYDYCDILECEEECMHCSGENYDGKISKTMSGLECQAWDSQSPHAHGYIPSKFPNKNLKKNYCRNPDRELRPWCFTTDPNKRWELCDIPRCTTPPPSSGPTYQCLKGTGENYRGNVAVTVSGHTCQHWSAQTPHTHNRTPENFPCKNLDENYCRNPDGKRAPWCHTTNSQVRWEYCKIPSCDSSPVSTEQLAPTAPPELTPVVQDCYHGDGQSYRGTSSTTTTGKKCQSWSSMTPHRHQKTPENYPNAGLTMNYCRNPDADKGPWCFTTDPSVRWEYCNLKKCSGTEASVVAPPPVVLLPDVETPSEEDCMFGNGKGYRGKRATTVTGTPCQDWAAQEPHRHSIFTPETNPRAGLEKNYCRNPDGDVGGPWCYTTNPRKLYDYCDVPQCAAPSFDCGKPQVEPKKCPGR
Sequence (P00747 581-810 limits assumed): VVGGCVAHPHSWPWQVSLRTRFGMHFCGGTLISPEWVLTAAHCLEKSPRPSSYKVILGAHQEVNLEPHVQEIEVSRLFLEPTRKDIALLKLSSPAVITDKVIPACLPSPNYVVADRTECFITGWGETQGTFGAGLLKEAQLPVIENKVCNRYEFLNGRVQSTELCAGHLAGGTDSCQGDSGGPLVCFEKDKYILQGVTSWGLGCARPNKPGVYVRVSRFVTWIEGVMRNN

IC50 [nM] | SMILES
> 1000 | CC[C@@H](c1cc(-c2ccc(N)nc2F)ccn1)n1cc(OC)c(-c2cc(Cl)ccc2-n2cnnn2)cc1=O

system: Plasma; assay: Anticoagulant activity in mouse plasma assessed as prolongation of activated partial thromboplastin time incubated for 3 mins by aPTT reagent based automated coagulometric analysis; assay type: functional; details: 0.05 h

SMILES | EC1.5 [µM]
CC[C@@H](c1cc(-c2ccc(N)nc2F)ccn1)n1cc(OC)c(-c2cc(Cl)ccc2-n2cnnn2)cc1=O | 1.5

target: Trypsin (Homo sapiens, UniProt P07477+P07478+P35030); assay: Inhibition of trypsin (unknown origin) using Bz-Ile-Glu(gamma-OR)-Gly-Arg-pNA.HCl as substrate incubated for 30 mins followed by substrate addition and measured after 60 mins by microplate reader analysis; assay type: protein assay; details: not given

IC50 [nM] | SMILES
> 1000 | CC[C@@H](c1cc(-c2ccc(N)nc2F)ccn1)n1cc(OC)c(-c2cc(Cl)ccc2-n2cnnn2)cc1=O

system: not listed separately; assay: Selectivity index, ratio of IC50 for inhibition of trypsin (unknown origin) using Bz-Ile-Glu(gamma-OR)-Gly-Arg-pNA.HCl as substrate to IC50 for inhibition of human FXIa using p-Glu-Pro-Arg-pNA.HCl as substrate; details: not given

Ratio IC50 | SMILES
> 1000 | CC[C@@H](c1cc(-c2ccc(N)nc2F)ccn1)n1cc(OC)c(-c2cc(Cl)ccc2-n2cnnn2)cc1=O

system: not listed separately; assay: Selectivity index, ratio of IC50 for inhibition of tPA (unknown origin) using H-D-Ile-Pro-Arg-pNA-2HCl as substrate to IC50 for inhibition of human FXIa using p-Glu-Pro-Arg-pNA.HCl as substrate; details: not given

Ratio IC50 | SMILES
> 1000 | CC[C@@H](c1cc(-c2ccc(N)nc2F)ccn1)n1cc(OC)c(-c2cc(Cl)ccc2-n2cnnn2)cc1=O

system: Plasma; assay: Anticoagulant activity in citrated human plasma assessed as prolongation of activated partial thromboplastin time at 1 uM incubated for 3 mins by aPTT reagent based automated coagulometric analysis relative to control; assay type: functional; details: 0.05 h

SMILES | Activity [%]
CC[C@@H](c1cc(-c2ccc(N)nc2F)ccn1)n1cc(OC)c(-c2cc(Cl)ccc2-n2cnnn2)cc1=O | 335.4

target: Prothrombin (Homo sapiens, UniProt P00734); assay: Inhibition of thrombin (unknown origin) using H-D-Phe-Pip-Arg-pNA.2HCl as substrate incubated for 30 mins followed by substrate addition and measured after 60 mins by microplate reader analysis; details: not given

IC50 [nM] | SMILES
> 1000 | CC[C@@H](c1cc(-c2ccc(N)nc2F)ccn1)n1cc(OC)c(-c2cc(Cl)ccc2-n2cnnn2)cc1=O

target: Plasma kallikrein (Homo sapiens, UniProt P03952); assay: Inhibition of PKal (unknown origin) using H-D-Pro-Phe-Arg-pNA.2HCl as substrate incubated for 30 mins followed by substrate addition and measured after 60 mins by microplate reader analysis; details: not given
Sequence (P03952 20-390 limits assumed): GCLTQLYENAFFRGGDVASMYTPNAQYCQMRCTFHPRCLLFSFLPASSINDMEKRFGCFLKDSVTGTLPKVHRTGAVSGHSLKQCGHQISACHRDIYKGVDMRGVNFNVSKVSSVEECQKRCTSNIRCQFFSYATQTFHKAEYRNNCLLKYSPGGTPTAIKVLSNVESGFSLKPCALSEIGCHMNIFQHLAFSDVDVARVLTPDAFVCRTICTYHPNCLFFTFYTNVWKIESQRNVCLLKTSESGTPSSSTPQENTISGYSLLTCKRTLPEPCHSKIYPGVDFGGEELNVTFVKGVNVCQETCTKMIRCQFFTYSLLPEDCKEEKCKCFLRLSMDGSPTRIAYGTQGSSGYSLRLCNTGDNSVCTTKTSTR
Sequence (P03952 391-638 limits assumed): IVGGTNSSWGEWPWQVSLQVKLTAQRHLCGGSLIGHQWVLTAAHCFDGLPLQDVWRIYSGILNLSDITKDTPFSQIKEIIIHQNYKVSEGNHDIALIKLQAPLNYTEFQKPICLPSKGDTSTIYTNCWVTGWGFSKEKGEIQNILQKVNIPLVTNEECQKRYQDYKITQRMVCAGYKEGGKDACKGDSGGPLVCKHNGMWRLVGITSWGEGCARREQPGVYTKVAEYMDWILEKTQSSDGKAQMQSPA

IC50 [nM] | SMILES
36 | CC[C@@H](c1cc(-c2ccc(N)nc2F)ccn1)n1cc(OC)c(-c2cc(Cl)ccc2-n2cnnn2)cc1=O

target: Tissue-type plasminogen activator (Homo sapiens, UniProt P00750); assay: Inhibition of tPA (unknown origin) using H-D-Ile-Pro-Arg-pNA-2HCl as substrate incubated for 30 mins followed by substrate addition and measured after 60 mins by microplate reader analysis; details: not given
Sequence (P00750 whole entry): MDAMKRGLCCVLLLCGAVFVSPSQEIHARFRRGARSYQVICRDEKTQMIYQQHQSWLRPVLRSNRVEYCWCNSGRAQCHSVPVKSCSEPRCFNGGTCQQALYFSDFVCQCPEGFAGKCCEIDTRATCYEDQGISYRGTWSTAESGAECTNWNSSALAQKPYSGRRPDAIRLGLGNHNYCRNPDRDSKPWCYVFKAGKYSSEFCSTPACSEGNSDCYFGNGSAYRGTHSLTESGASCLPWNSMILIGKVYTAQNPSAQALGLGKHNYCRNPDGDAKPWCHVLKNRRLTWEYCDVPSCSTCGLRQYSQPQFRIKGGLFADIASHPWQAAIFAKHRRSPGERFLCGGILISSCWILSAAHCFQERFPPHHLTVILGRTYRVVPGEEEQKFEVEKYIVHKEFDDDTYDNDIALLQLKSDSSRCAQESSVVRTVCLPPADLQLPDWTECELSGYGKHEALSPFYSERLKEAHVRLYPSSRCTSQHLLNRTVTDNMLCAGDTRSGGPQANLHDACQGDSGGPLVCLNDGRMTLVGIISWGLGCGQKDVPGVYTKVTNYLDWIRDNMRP

IC50 [nM] | SMILES
> 1000 | CC[C@@H](c1cc(-c2ccc(N)nc2F)ccn1)n1cc(OC)c(-c2cc(Cl)ccc2-n2cnnn2)cc1=O

system: not listed separately; assay: Selectivity index, ratio of IC50 for inhibition of FXIIa (unknown origin) using H-D-ProPhe-Arg-pNA.2HCl as substrate to IC50 for inhibition of human FXIa using p-Glu-Pro-Arg-pNA.HCl as substrate; details: not given

Ratio IC50 | SMILES
> 1000 | CC[C@@H](c1cc(-c2ccc(N)nc2F)ccn1)n1cc(OC)c(-c2cc(Cl)ccc2-n2cnnn2)cc1=O

system: not listed separately; assay: Selectivity index, ratio of IC50 for inhibition of plasmin (unknown origin) using PyroGlu-Phe-Lys-pNA.HCl as substrate to IC50 for inhibition of human FXIa using p-Glu-Pro-Arg-pNA.HCl as substrate; details: not given

Ratio IC50 | SMILES
> 1000 | CC[C@@H](c1cc(-c2ccc(N)nc2F)ccn1)n1cc(OC)c(-c2cc(Cl)ccc2-n2cnnn2)cc1=O

system: Plasma; assay: Anticoagulant activity in citrated human plasma assessed as prolongation of prothrombin time incubated for 3 mins by PT reagent based automated coagulometric analysis; assay type: functional, cell-free; details: not given

SMILES | Activity
CC[C@@H](c1cc(-c2ccc(N)nc2F)ccn1)n1cc(OC)c(-c2cc(Cl)ccc2-n2cnnn2)cc1=O | inactive

system: Plasma; assay: Anticoagulant activity in citrated human plasma assessed as prolongation of activated partial thromboplastin time incubated for 3 mins by aPTT reagent based automated coagulometric analysis; assay type: functional; details: not given

SMILES | Activity
CC[C@@H](c1cc(-c2ccc(N)nc2F)ccn1)n1cc(OC)c(-c2cc(Cl)ccc2-n2cnnn2)cc1=O | Dose-dependent-effect

same assay, conditions: 0.05 h

SMILES | EC1.5 [µM]
CC[C@@H](c1cc(-c2ccc(N)nc2F)ccn1)n1cc(OC)c(-c2cc(Cl)ccc2-n2cnnn2)cc1=O | 0.34

target: Coagulation factor XI (Homo sapiens, UniProt P03951); assay: Inhibition of human FXIa using p-Glu-Pro-Arg-pNA.HCl as substrate incubated for 30 mins followed by substrate addition and measured after 60 mins by microplate reader analysis; details: not given
Sequence (P03951 19-387 limits assumed): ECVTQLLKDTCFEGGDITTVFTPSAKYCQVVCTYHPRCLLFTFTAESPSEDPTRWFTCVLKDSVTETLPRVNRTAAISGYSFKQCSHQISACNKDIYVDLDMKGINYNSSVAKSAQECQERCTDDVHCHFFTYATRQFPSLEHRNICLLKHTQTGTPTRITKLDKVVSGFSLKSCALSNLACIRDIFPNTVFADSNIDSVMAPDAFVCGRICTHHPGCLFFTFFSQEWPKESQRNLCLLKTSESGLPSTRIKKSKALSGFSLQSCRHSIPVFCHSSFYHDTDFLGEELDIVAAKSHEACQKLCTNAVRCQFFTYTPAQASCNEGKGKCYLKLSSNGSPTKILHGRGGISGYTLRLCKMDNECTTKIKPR
Sequence (P03951 388-625 limits assumed): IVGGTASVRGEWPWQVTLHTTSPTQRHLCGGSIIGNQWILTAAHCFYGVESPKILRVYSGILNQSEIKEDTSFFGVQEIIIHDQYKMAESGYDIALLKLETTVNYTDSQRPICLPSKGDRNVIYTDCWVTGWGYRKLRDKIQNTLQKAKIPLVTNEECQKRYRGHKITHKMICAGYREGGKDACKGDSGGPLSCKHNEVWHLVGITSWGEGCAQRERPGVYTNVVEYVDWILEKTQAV

IC50 [nM] | SMILES
0.31 | CC[C@@H](c1cc(-c2ccc(N)nc2F)ccn1)n1cc(OC)c(-c2cc(Cl)ccc2-n2cnnn2)cc1=O

target: Chymotrypsin (Homo sapiens, UniProt Q99895+P17538+P40313+Q6GPI1); assay: Inhibition of chymotrypsin (unknown origin) using N-Suc-Ala-Ala-Pro-Phe-pNA as substrate incubated for 30 mins followed by substrate addition and measured after 60 mins by microplate reader analysis; assay type: protein assay; details: not given

IC50 [nM] | SMILES
> 1000 | CC[C@@H](c1cc(-c2ccc(N)nc2F)ccn1)n1cc(OC)c(-c2cc(Cl)ccc2-n2cnnn2)cc1=O

target: T1, Coagulation factor XII (Homo sapiens, UniProt P00748); assay: Inhibition of FXIIa (unknown origin) using H-D-ProPhe-Arg-pNA.2HCl as substrate incubated for 30 mins followed by substrate addition and measured after 60 mins by microplate reader analysis; details: not given
T1 sequence (P00748 whole entry): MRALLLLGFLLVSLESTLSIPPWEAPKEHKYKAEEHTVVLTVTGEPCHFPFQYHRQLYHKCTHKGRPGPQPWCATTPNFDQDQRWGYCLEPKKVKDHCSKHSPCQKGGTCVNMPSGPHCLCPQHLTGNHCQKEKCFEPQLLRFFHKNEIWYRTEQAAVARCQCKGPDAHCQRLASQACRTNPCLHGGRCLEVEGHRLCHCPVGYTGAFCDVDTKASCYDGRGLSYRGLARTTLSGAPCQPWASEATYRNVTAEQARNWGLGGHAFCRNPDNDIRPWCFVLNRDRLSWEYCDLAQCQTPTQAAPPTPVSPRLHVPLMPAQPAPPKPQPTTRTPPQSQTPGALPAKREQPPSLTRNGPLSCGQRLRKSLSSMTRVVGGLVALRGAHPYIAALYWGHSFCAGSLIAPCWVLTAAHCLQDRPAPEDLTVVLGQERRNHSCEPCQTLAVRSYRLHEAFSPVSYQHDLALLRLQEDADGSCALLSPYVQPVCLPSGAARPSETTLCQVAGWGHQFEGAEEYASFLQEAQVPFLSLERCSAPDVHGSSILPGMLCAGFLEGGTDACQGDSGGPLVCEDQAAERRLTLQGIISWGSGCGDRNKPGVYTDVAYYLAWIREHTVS

IC50 [nM] | SMILES
> 1000 | CC[C@@H](c1cc(-c2ccc(N)nc2F)ccn1)n1cc(OC)c(-c2cc(Cl)ccc2-n2cnnn2)cc1=O

target: Coagulation factor X (Homo sapiens, UniProt P00742); assay: Inhibition of FXa (unknown origin) using Z-D-Arg-Gly-Arg-pNA.2HCl as substrate incubated for 30 mins followed by substrate addition and measured after 60 mins by microplate reader analysis; details: not given
Sequence (P00742 41-179 limits assumed): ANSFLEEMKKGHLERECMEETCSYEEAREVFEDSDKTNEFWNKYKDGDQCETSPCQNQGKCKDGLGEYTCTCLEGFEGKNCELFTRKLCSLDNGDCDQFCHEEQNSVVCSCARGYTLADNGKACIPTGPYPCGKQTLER
Sequence (P00742 235-488 limits assumed): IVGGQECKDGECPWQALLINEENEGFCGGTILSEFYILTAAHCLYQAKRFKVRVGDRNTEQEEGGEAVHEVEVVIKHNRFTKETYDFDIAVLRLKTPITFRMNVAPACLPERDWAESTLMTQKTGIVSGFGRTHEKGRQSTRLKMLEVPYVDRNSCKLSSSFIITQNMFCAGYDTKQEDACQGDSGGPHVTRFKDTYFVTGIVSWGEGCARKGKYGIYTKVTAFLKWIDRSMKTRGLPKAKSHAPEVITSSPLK

IC50 [nM] | SMILES
> 1000 | CC[C@@H](c1cc(-c2ccc(N)nc2F)ccn1)n1cc(OC)c(-c2cc(Cl)ccc2-n2cnnn2)cc1=O

system: not listed separately; assay: Selectivity index, ratio of IC50 for inhibition of thrombin (unknown origin) using H-D-Phe-Pip-Arg-pNA.2HCl as substrate to IC50 for inhibition of human FXIa using p-Glu-Pro-Arg-pNA.HCl as substrate; details: not given

Ratio IC50 | SMILES
> 1000 | CC[C@@H](c1cc(-c2ccc(N)nc2F)ccn1)n1cc(OC)c(-c2cc(Cl)ccc2-n2cnnn2)cc1=O

system: not listed separately; assay: Selectivity index, ratio of IC50 for inhibition of FXa (unknown origin) using Z-D-Arg-Gly-Arg-pNA.2HCl as substrate to IC50 for inhibition of human FXIa using p-Glu-Pro-Arg-pNA.HCl as substrate; details: not given

Ratio IC50 | SMILES
> 1000 | CC[C@@H](c1cc(-c2ccc(N)nc2F)ccn1)n1cc(OC)c(-c2cc(Cl)ccc2-n2cnnn2)cc1=O
